The text below walks through data of PubChem BioAssay AID1259333 (Broad Institute, 2017).

Several values for one entry are separate records, joined by “and”; a condition that tells them apart may be missing. Identical values can stand only once. Activity calls are given as the source filed them. No rule for the calls is given here; tested in parental BL2 cells.

The assay concerns cytotoxicity, CellTiter-Glo ATP luminescence. The experiment in a line: cell cytotoxicity, dose response, cytotoxicity control, CellTiter-Glo (AID 1259333).
In general, AC50 refers to the concentration at which the activity in the assay is half-maximal. On to `C[C@@H]1CN([C@@H](C)CO)C(=O)c2c(c3ccccc3n2C)-c2ccccc2CO[C@@H]1CN(C)Cc1cccc(C(F)(F)F)c1`, for which the AC50 was > 20 µM (inactive). The value for `CCCNC(=O)N1[C@@H](C#N)[C@H](c2ccc(-c3cccc(OC)c3)cc2)[C@@H]1CO` was > 20 µM (inactive); that for `C[C@@H]1CN([C@H](C)CO)C(=O)c2c(c3ccccc3n2C)-c2ccccc2CO[C@H]1CN(C)C(=O)c1cc(Cl)cc(Cl)c1` was > 20 µM (inactive). Turning to `Cc1noc(C)c1S(=O)(=O)Nc1ccc2c(c1)CC(=O)N([C@@H](C)CO)C[C@@H](C)[C@@H](CN(C)Cc1ccc(Oc3ccccc3)cc1)O2`, the AC50 was > 20 µM (inactive). `N#C[C@@H]1[C@H](c2ccc(C#CC3CCCC3)cc2)[C@@H](CO)N1C(=O)Nc1ccc(F)cc1`: the AC50 was > 20 µM (inactive). The value for `C1CCC(C(CC2CCCCN2)C2CCCCC2)CC1` (configuration not stated) was 2.37 µM; that for `COc1ccc(S(=O)(=O)Nc2ccc3c(c2)C(=O)N([C@H](C)CO)C[C@H](C)[C@@H](CN(C)Cc2ccc(C(F)(F)F)cc2)OCCCC[C@@H](C)O3)cc1` was 10.5 µM.

`O=C1NC2c3c(I)sc(I)c3C(=O)C2O1` (configuration not stated): the half-maximal activity concentration (AC50) is 6.34 µM.

For the compound `C[C@@H]1CN([C@@H](C)CO)C(=O)c2c(c3ccccc3n2C)-c2ccccc2CO[C@H]1CN(C)Cc1cccc(C(F)(F)F)c1`, the AC50 is 3.94 µM. `COc1c(O)cc2oc3cc(O)c(CC=C(C)C)c(O)c3c(=O)c2c1CC=C(C)C`: the AC50 was 6.98 µM. In the case of `C[C@@H]1CCCCO[C@H](CN(C)Cc2ccc(C(F)(F)F)cc2)[C@@H](C)CN([C@@H](C)CO)C(=O)c2cc(NC(=O)Nc3cccc4ccccc34)ccc2O1`, the AC50 is 10.7 µM. For `O=C(Nc1ccccc1)N1CC(=O)N2[C@H](CO)[C@@H](c3ccc(C#CC4CCCCC4)cc3)[C@H]2C1`, the AC50 is > 20 µM (inactive). The value for `Cc1cc(OCC(=O)OCC(=O)NCc2ccco2)ccc1Cl` was 2.21 µM.

On to `NS(=O)(=O)c1cc2c(cc1C(F)(F)F)NC(Cc1ccccc1)NS2(=O)=O` (configuration not stated), for which the AC50 is > 20 µM (inactive). Consider `C[C@@H]1O[C@@H](O[C@H]2C[C@@H](O)[C@]3(CO)[C@H]4[C@H](O)C[C@]5(C)[C@@H](C6COC(=O)C6)CC[C@]5(O)[C@@H]4CC[C@]3(O)C2)[C@H](O)[C@H](O)[C@H]1O` (some centres not stated), for which the half-maximal activity concentration (AC50) was 1.87 µM. Turning to `O=C(Cn1ncc(Cl)c(Cl)c1=O)NC1CCCCC1`, the AC50 was 9.64 µM. With `CC(C)[C@H](CO)Nc1nc(Nc2cccc(Cl)c2)c2ncn(C(C)C)c2n1`, the AC50 was 2.86 µM. The value for `O=C(Nc1cccc(N2C(=O)C=CC2=O)c1)c1cccs1` was 2.26 µM. The value for `C[C@@H]1CN([C@H](C)CO)C(=O)c2c(c3ccccc3n2C)-c2ccccc2CO[C@H]1CN(C)Cc1cccc(C(F)(F)F)c1` was > 20 µM (inactive); that for `COc1ccc(S(=O)(=O)Nc2ccc3c(c2)C(=O)N([C@H](C)CO)C[C@@H](C)[C@@H](CN(C)Cc2ccc(C(F)(F)F)cc2)OCCCC[C@H](C)O3)cc1` was > 20 µM (inactive).

`C[C@H]1O[C@@H](O[C@H]2[C@@H](O)C[C@H](O[C@H]3[C@@H](O)C[C@H](O[C@H]4CC[C@]5(C)C6C[C@@H](O)[C@]7(C)[C@@H](C8=CC(=O)OC8)CC[C@]7(O)C6CC[C@@H]5C4)O[C@@H]3C)O[C@@H]2C)C[C@H](O)[C@@H]1O` (some centres not stated): the AC50 is 2.71 µM. For `N#C[C@@H]1[C@H](c2ccc(C#CC3CCCCC3)cc2)[C@@H](CO)N1C(=O)Nc1ccc(F)cc1`, the AC50 was > 20 µM (inactive). `Cc1ccsc1C(=O)OCC(=O)c1cc(C)n(CC2CCCO2)c1C` (configuration not stated): the AC50 was > 20 µM (inactive).

`Cc1c(CCOC(=O)CC23CC4CC(CC(C)(C4)C2)C3)sc[n+]1CC(=O)c1ccccc1`: the concentration at half-maximal activity (AC50) was 5.88 µM. The value for `C[C@H](CO)N1C[C@H](C)[C@@H](CN(C)Cc2ccc(Oc3ccccc3)cc2)Oc2c(NC(=O)CCC(F)(F)F)cccc2C1=O` was 6.84 µM; that for `Cc1noc(C)c1S(=O)(=O)Nc1ccc2c(c1)C(=O)N([C@@H](C)CO)C[C@H](C)[C@@H](CN(C)C(=O)Nc1cccc3ccccc13)OCCCC[C@H](C)O2` was > 20 µM (inactive). Turning to `C[C@H]1CN([C@@H](C)CO)C(=O)c2c(c3ccccc3n2C)-c2ccccc2CO[C@H]1CN(C)C(=O)Nc1cccc(C(F)(F)F)c1`, the concentration at half-maximal activity (AC50) is 0.878 µM. For the compound `CC1OC(OC2CC(O)C3(CO)C4C(O)CC5(C)C(C6=CC(=O)OC6)CCC5(O)C4CCC3(O)C2)C(O)C(O)C1O` (configuration not stated), the half-maximal activity concentration (AC50) was 0.236 µM.

Regarding `N#C[C@H]1[C@@H](c2ccc(C#CC3CCCCC3)cc2)[C@@H](CO)N1C(=O)Nc1ccc(F)cc1`, the AC50 was > 20 µM (inactive).

Regarding `CC1CC(C)(O)CC(C(O)CC2CC(=O)NC(=O)C2)C1=O` (configuration not stated), the half-maximal activity concentration (AC50) is 7.54 µM. On to `C[C@H]1CN([C@@H](C)CO)C(=O)c2c(c3ccccc3n2C)-c2ccccc2CO[C@@H]1CN(C)S(=O)(=O)c1ccc([N+](=O)[O-])cc1`, for which the AC50 is > 20 µM (inactive).

With `C=C1C(=O)C23C(O)C1CCC2C12CCCC(C)(COC(C)=O)C1C(O)C3(O)OC2` (configuration not stated), the concentration at half-maximal activity (AC50) was 5.52 µM.

On to `COc1cccc2c1C(=O)c1c(O)c3c(c(O)c1C2=O)C[C@@](O)(C(C)=O)C[C@@H]3OC1CC(N)C(O)C(C)O1` (some centres not stated), for which the AC50 is 2.72 µM.

As to `C[C@H]1CN([C@@H](C)CO)C(=O)c2c(c3ccccc3n2C)-c2ccccc2CO[C@@H]1CN(C)Cc1cccc(C(F)(F)F)c1`, the AC50 was 4.21 µM. Regarding `C[C@@H]1CN([C@@H](C)CO)C(=O)Cc2cc(NC(=O)Cc3cn(C)c4ccccc34)ccc2O[C@H]1CN(C)Cc1ccc(C(F)(F)F)cc1`, the AC50 was > 20 µM (inactive). Take `O=C1NC2C(=CC(O)C(O)C2O)c2cc3c(c(O)c21)OCO3` (configuration not stated): the AC50 is 10 µM. `CSc1ccc2c(c1)N(CCC1CCCCN1C)c1ccccc1S2` (configuration not stated): the AC50 was 8.67 µM. With `CN(C)c1ccc(C=c2c3cc(O)ccc3n3c2cc(-c2ccccc2)[n+]3C)cc1`, the half-maximal activity concentration (AC50) was 10.8 µM. Turning to `C[C@@H]1CN([C@@H](C)CO)C(=O)c2c(c3ccccc3n2C)-c2ccccc2CO[C@H]1CN(C)Cc1ccccc1`, the AC50 was 9.77 µM.

As for `C[C@H]1CN([C@@H](C)CO)C(=O)c2ccccc2-c2ccccc2CO[C@H]1CN(C)Cc1ccc(Oc2ccccc2)cc1`, the AC50 is > 20 µM (inactive). The value for `COc1ccc(/C=C\c2nc(=O)c3ccccc3o2)cc1` was 6.79 µM; that for `O=C(c1ccc(Nc2nccc(-c3cc4ccccc4s3)n2)cc1)N1CCC(N2CCCC2)CC1` was 3.83 µM and 1.17 µM.

As to `NC(=O)c1c(Br)n(C2OC(CO)C(O)C2O)c2ncnc(N)c12` (configuration not stated), the concentration at half-maximal activity (AC50) was 3.14 µM. The value for `CC(=O)Nc1ccc(Sc2ccc([N+](=O)[O-])o2)cc1` was 6.13 µM; that for `COC(=O)C1=C(C)NC(C)=C(C(=O)OCCCN2CCC(c3ccccc3)(c3ccccc3)CC2)[C@H]1c1cccc([N+](=O)[O-])c1` was > 20 µM (inactive); that for `COc1ccc(S(=O)(=O)Nc2ccc3c(c2)C(=O)N([C@@H](C)CO)C[C@@H](C)[C@@H](CN(C)Cc2ccc(C(F)(F)F)cc2)OCCCC[C@H](C)O3)cc1` was > 20 µM (inactive). Consider `CC(=O)NCCCC(=O)NC(CCC(=O)OCc1ccccc1)C(=O)OCc1ccccc1` (configuration not stated), for which the AC50 is 9.31 µM. Take `COC(=O)c1nn(-c2ccc(-c3ccccc3)cc2)cc1O`: the AC50 was > 20 µM (inactive). Take `COc1cccc(-c2cc(=O)c3cc(OC)ccc3o2)c1`: the AC50 is 10.3 µM. Regarding `N=C(N)c1ccc(OCCCCCOc2ccc(C(=N)N)cc2)cc1`, the AC50 was > 20 µM (inactive).

For the compound `C[C@H](CO)N1C[C@H](C)[C@@H](CN(C)Cc2ccc(Oc3ccccc3)cc2)OCc2ccccc2-c2ccccc2C1=O`, the AC50 was > 20 µM (inactive).

On to `CC(C)Cc1ccc(C(C)CC2=CCC(CN(C)C)C2=O)cc1` (configuration not stated), for which the AC50 is 3.42 µM. On to `CC(C)(C)[C@H](N)C(=O)N[C@H]1CCC2C3CC=C4C[C@@H](O)CC[C@]4(C)C3CC[C@@]21C` (some centres not stated), for which the AC50 was 5.7 µM.

Consider `C=C1CC(Cn2cc(Br)c(=O)[nH]c2=O)(c2ccc(-c3ccccc3)cc2)OC1=O` (configuration not stated), for which the half-maximal activity concentration (AC50) was 6.59 µM. The value for `Cc1ccc(S(=O)(=O)C=CS(=O)(=O)c2ccc(C)cc2)cc1` was 3.97 µM; that for `C[C@@H]1CN([C@H](C)CO)C(=O)c2ccccc2-c2ccccc2CO[C@@H]1CN(C)Cc1ccccc1C(F)(F)F` was 6.93 µM; that for `N#Cc1cccc(-c2ccc(C3[C@H]4CNC[C@@H]3N4Cc3ccc4c(c3)OCO4)cc2)c1` (some centres not stated) was > 20 µM (inactive).

For the compound `CC(C(=O)O)c1ccc(N2Cc3ccccc3C2=O)cc1` (configuration not stated), the AC50 is 9.56 µM. Turning to `Cc1cc(C)nc(Sc2ncnc(N)c2[N+](=O)[O-])n1`, the AC50 is > 20 µM (inactive). The value for `COC(=O)C1=C(C(=O)OC)C(C(=O)OC)C(C(=O)OC)C(C(=O)OC)(C(=O)OC)C(C(=O)OC)=C1C(=O)OC` (configuration not stated) was 7.79 µM; that for `CN(C)C(=S)SSC(=S)N(C)C` was 1.36 µM; that for `CCS(=O)(=O)N1[C@H](CO)[C@@H](c2ccc(C#Cc3ccccc3F)cc2)[C@@H]1C#N` was > 20 µM (inactive).

As to `O=C(Nc1ccccn1)c1ccc(-c2ccccc2)cc1`, the AC50 was > 20 µM (inactive). For the compound `COCC(C)n1c(C)cc(C(=O)COC(=O)c2cccn2C)c1C` (configuration not stated), the AC50 was > 7 µM (inactive). For `O=C1C=CC2C3C(=O)N(c4ccccc4)C(=O)C3C1N2Cc1ccccc1` (configuration not stated), the concentration at half-maximal activity (AC50) was 8.98 µM. With `O=C(Cc1ccccc1)N1CC[C@@H]2[C@H]1c1cc(C#Cc3cccc(F)c3)ccc1N[C@@H]2CO`, the AC50 is 10.8 µM. Turning to `CC1=CC2OC3CC4OC(=O)C=CC=CC(=O)OCCC(C)C(O)C(=O)OCC2(CC1O)C4(C)C31CO1` (configuration not stated), the concentration at half-maximal activity (AC50) was 7.23 µM. In the case of `O=C(C1CC1)N1C[C@@H]2N[C@H](C1)[C@@H]2c1ccc(-c2ccncc2)cc1`, the AC50 is > 20 µM (inactive).

Consider `CC(=O)OC1CC2(O)C3CCC4CC(O)CCC4(C)C3CCC2(C)C1C1=CC(=O)OC1` (configuration not stated), for which the concentration at half-maximal activity (AC50) is 0.559 µM.

In the case of `C[C@@H]1CN([C@H](C)CO)C(=O)c2cc(NC(=O)Nc3cccc4ccccc34)ccc2O[C@@H](C)CCCCO[C@H]1CN(C)Cc1ccc(C(F)(F)F)cc1`, the AC50 was > 20 µM (inactive). As for `CC12CCC3C(CCC4(O)CC(O)CCC34C=NO)C1(O)CCC2C1=COC(=O)C1` (configuration not stated), the half-maximal activity concentration (AC50) was 0.322 µM. The value for `CC12CCC3C(CCC4(O)CC(O)CCC34C=O)C1(O)CCC2C1=CC(=O)OC1` (configuration not stated) was 3.23 µM.
